Legend:
[1] = molecular target: T1, Poly [ADP-ribose] polymerase tankyrase-2 (Homo sapiens, UniProt Q9H2K2); test: Inhibition of TNKS2 (unknown origin) using biotinylated NAD as substrate assessed as inhibition of autoPARsylation activity incubated for 1 hr by ELISA
T1 sequence (Q9H2K2 whole entry): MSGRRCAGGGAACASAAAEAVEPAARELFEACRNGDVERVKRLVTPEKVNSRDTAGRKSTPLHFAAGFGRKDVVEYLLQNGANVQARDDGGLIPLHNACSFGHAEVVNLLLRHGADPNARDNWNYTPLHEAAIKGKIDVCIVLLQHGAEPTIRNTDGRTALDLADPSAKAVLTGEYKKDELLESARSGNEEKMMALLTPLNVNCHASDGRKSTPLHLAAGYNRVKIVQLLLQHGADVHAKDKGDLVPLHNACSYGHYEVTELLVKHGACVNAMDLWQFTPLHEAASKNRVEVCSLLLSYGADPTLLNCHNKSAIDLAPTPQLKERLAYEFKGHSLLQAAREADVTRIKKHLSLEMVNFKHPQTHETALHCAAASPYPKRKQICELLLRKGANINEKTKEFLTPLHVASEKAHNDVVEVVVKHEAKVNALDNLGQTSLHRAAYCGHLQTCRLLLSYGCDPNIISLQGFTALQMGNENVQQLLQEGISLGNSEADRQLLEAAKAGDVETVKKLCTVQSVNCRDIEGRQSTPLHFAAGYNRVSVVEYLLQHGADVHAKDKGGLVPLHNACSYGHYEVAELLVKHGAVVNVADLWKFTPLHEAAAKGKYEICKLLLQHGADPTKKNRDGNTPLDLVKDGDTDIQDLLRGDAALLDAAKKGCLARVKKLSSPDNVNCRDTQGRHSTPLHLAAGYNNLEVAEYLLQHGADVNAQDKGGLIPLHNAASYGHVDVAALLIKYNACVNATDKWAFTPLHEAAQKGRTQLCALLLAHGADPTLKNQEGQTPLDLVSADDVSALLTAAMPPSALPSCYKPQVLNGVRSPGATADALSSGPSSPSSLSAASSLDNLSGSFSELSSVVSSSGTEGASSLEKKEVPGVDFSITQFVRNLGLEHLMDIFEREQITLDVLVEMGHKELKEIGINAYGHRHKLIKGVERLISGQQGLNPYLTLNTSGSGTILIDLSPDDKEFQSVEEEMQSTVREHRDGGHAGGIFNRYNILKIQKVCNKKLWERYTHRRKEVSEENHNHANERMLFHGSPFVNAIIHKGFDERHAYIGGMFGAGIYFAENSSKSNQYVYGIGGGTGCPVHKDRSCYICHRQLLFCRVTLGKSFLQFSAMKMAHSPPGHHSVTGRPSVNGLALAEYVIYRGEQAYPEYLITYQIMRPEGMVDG

[2] = molecular target: T2, Poly [ADP-ribose] polymerase tankyrase-1 (Homo sapiens, UniProt O95271); test: Inhibition of TNKS1 (unknown origin) using biotinylated NAD as substrate assessed as inhibition of autoPARsylation activity incubated for 1 hr by ELISA
T2 sequence (O95271 whole entry): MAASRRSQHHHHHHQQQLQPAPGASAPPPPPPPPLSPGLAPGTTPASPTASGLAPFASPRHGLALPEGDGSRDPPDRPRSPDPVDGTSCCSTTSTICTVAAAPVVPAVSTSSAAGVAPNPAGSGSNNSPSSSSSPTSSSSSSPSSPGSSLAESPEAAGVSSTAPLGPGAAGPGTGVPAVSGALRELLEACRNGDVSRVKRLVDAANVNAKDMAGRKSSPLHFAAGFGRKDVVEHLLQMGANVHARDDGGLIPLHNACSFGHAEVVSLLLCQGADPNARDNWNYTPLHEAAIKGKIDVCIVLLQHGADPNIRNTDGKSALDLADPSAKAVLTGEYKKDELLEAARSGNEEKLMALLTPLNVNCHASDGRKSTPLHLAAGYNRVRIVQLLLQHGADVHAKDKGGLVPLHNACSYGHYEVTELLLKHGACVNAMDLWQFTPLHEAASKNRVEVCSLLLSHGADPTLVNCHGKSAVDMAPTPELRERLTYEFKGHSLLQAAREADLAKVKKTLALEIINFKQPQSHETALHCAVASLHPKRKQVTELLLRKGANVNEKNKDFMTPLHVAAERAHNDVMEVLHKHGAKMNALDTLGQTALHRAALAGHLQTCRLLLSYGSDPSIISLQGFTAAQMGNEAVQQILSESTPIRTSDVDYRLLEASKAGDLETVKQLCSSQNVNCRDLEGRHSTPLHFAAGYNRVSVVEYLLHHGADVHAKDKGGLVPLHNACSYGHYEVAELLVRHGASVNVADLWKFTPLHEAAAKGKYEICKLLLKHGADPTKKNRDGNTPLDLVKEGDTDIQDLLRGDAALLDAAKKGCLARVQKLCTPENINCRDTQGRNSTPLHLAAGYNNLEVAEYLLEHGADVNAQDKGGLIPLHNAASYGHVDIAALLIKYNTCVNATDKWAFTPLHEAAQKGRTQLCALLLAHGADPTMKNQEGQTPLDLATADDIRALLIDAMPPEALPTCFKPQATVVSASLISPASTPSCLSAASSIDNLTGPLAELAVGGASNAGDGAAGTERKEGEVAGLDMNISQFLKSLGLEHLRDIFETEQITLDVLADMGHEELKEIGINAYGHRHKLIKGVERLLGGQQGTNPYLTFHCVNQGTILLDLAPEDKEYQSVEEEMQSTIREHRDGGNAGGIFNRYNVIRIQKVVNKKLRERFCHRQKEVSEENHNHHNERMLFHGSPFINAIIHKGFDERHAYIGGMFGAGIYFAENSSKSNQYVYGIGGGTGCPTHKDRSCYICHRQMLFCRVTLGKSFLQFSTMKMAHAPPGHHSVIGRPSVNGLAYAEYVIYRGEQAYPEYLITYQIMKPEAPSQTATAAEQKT

[3] = Modulation of Wnt/beta-catenin signaling pathway in human DLD-1 cells assessed as induction of AXIN2 accumulation incubated for 24 hrs by ELISA; format: cell-based; settings: DLD-1, 24 h
[4] = molecular target: Poly [ADP-ribose] polymerase 1 (Homo sapiens, UniProt P09874); test: Inhibition of PARP-1 (unknown origin) using biotinylated NAD and NAD as substrate assessed as inhibition of auto-PARsylation incubated for 150 mins by TR-FRET assay
Chain of Poly [ADP-ribose] polymerase 1 (P09874 whole entry, the tested form may be a part): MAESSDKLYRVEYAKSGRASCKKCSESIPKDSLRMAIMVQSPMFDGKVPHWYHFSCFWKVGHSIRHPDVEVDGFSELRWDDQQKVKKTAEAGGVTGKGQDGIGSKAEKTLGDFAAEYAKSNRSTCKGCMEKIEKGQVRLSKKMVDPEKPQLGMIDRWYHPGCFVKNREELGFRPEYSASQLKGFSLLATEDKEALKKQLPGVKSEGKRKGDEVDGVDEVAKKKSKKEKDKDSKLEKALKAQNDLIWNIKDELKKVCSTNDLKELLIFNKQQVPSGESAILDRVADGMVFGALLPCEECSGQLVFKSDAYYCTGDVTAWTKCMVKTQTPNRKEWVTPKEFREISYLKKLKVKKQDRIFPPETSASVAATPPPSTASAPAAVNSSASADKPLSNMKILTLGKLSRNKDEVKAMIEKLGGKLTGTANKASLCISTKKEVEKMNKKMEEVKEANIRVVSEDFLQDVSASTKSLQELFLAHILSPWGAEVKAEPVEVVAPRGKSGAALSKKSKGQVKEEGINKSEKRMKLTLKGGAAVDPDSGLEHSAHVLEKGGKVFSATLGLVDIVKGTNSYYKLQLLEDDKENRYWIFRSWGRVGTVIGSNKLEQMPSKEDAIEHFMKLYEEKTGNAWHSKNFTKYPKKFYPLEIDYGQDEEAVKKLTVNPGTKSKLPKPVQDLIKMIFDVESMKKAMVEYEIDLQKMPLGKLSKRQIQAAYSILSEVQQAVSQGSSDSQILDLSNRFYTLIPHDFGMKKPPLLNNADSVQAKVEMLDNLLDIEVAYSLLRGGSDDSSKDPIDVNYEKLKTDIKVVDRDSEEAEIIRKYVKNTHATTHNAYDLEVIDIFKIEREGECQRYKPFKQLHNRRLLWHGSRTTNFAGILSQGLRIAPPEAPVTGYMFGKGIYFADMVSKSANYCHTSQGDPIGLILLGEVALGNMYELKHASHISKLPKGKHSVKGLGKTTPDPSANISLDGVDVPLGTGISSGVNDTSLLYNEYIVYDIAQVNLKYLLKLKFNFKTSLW

[5] = molecular target: T2, Poly [ADP-ribose] polymerase tankyrase-1; test: Binding affinity to recombinant human TNKS1 (1091 to 1327 residues) assessed as dissociation constant by ITC method
[6] = molecular target: T2, Poly [ADP-ribose] polymerase tankyrase-1; test: Inhibition of TNKS1 (unknown origin) using biotinylated NAD as substrate assessed as inhibition of autoPARsylation activity incubated for 90 mins by TR-FRET analysis

Row | SMILES | IC50 [1] [nM] | IC50 [2] [nM] | EC50 [3] [nM] | IC50 [4] [nM] | Kd [5] [nM] | IC50 [6] [nM]
1 | Cc1csc2c(=O)[nH]c(-c3ccc(C(C)(C)O)cc3)nc12 | 1.5 | 2 | 96 | 440 | – | –
2 | Cc1ccc(-c2cn3ccnc3c(=O)[nH]2)cc1 | – | – | – | – | – | 1500
3 | CC(C)(O)c1ccc(-c2cn3c(F)c(F)cc3c(=O)[nH]2)cc1 | 3.5 | 1.2 | 159 | 1300 | – | –
4 | Cc1cc2c(=O)[nH]c(-c3ccc(C(C)(C)O)cc3)nn2n1 | 2600 | 570 | 12000 | – | – | –
5 | CC(C)(C)c1ccc(-c2cn3ccnc3c(=O)[nH]2)cc1 | – | 21 | 1430 | – | – | –
6 | Cc1ccc2c(=O)[nH]c(-c3ccc(C(C)(C)O)cc3)nn12 | 0.9 | 0.8 | 28 | 950 | – | –
7 | CC(C)(C)c1ccc(-c2cn3cncc3c(=O)[nH]2)cc1 | 35 | 27 | 635 | – | – | –
8 | Cc1ncc2c(=O)[nH]c(-c3ccc(C(C)(C)C)cc3)cn12 | 3.8 | 2.9 | 210 | 28000 | – | –
9 | Cc1cc2c(=O)[nH]c(-c3ccc(C(C)(C)O)cc3)cn2n1 | 36 | 13 | 510 | 3700 | – | –
10 | CC(C)(O)c1ccc(-c2cn3cc(F)cc3c(=O)[nH]2)cc1 | 2.9 | 1.9 | 147 | 450 | – | –
11 | Cc1cc2c(=O)[nH]c(-c3ccc(C(C)(C)O)cc3)cn2c1 | 7.9 | 2.3 | 230 | 1900 | – | –
12 | CC(C)(O)c1ccc(-c2cn3cc(Cl)cc3c(=O)[nH]2)cc1 | 9.4 | 2.5 | 118 | 630 | – | –
13 | CC(C)(O)c1ccc(-c2cn3cccc3c(=O)[nH]2)cc1 | 5.5 | 2.7 | 120 | 920 | 6 | –

The remaining lines, values ahead:

Row | IC50 [1] [nM] | IC50 [2] [nM] | EC50 [3] [nM] | IC50 [4] [nM] | Kd [5] [nM] | IC50 [6] [nM] | SMILES
14 | 6.1 | 3.4 | 113 | 2000 | 6 | – | CC(C)(O)c1ccc(-c2cn3c(F)ccc3c(=O)[nH]2)cc1
15 | 1.5 | 2.3 | 20 | 693 | – | – | Cc1ccc2c(=O)[nH]c(-c3ccc(C(C)(C)OCCO)cc3)cn12
16 | 8.2 | 9.8 | 580 | 4200 | – | – | CC(C)(O)c1ccc(-c2cn3c(CO)ccc3c(=O)[nH]2)cc1
17 | 1 | 1 | 49 | 330 | – | – | Cc1ccc2c(=O)[nH]c(-c3ccc(C4(O)CC4)cc3)cn12
18 | 1.6 | 2.1 | 16 | 340 | – | – | Cc1ccc2c(=O)[nH]c(-c3ccc([C@@](C)(O)CCO)cc3)cn12
19 | 1.7 | 1.9 | 93 | 748 | – | – | Cc1ccc2c(=O)[nH]c(-c3ccc([C@@](C)(O)CO)cc3)cn12
20 | 2 | 2.6 | 82 | 604 | – | – | Cc1ccc2c(=O)[nH]c(-c3ccc([C@](C)(O)CO)cc3)cn12
21 | 1.8 | 2.5 | 28 | 350 | – | – | Cc1ccc2c(=O)[nH]c(-c3ccc(C4(O)COC4)cc3)cn12
22 | 14 | 12 | 749 | 23000 | – | – | Cc1ncc2c(=O)[nH]c(-c3ccc(C(C)(C)O)cc3)cn12
23 | 1 | 0.8 | 18 | 770 | – | – | Cc1ccc2c(=O)[nH]c(-c3ccc([C@](C)(O)CCO)cc3)cn12

From ChEMBL document CHEMBL5226325, “Optimization of a Screening Hit toward M2912, an Oral Tankyrase Inhibitor with Antitumor Activity in Colorectal Cancer Models” (J Med Chem, 2021)
